# Assays:
# Assay in all cases: relative viability (nuclei count vs DMSO), 5 days (fraction); higher = more cells survive
# [1] = compound: C1=CC(=CC=C1NC(=S)NNC2=C(C=C(C=C2[N+](=O)[O-])C(F)(F)F)[N+](=O)[O-])F [Kobe2602] + COc1cc2c(Oc3ccc(NC(=O)C4(C(=O)Nc5ccc(F)cc5)CC4)cc3F)ccnc2cc1OCCCN1CCOCC1 [Foretinib] (partner 0.25 µM)
# How it was run: (§1)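 Nuclei were stained with Hoechst during a one-step fixation (final 0.05% Triton X-100, 1% formaldehyde, 1 ug/ml Hoechst) carried out 5 days after dosing, then counted on 4× images. The cells, lung cancer lines in 1536-well plates, had been dosed by pin tool the day after seeding with one drug alone or a fixed anchor-drug dose plus five library-drug doses (not always all listed) in √10 steps. Relative viability is the nuclei count in treated wells divided by that in vehicle wells, and each value is the median of duplicate plates.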
# [2] = compound: C1=CC(=CC=C1NC(=S)NNC2=C(C=C(C=C2[N+](=O)[O-])C(F)(F)F)[N+](=O)[O-])F [Kobe2602] + C[C@]1(O)C[C@@H](c2nc(-c3ccc4ccc(-c5ccccc5)nc4c3)c3c(N)nccn32)C1 [Linsitinib] (partner 1 µM)
# How it was run: as §1
# [3] = compound: O[C@@H](COc1cccc2ncccc12)CN1CCN([C@@H]2c3ccccc3[C@@H]3[C@H](c4ccccc42)C3(F)F)CC1 [Zosuquidar] + C[C@]1(O)C[C@@H](c2nc(-c3ccc4ccc(-c5ccccc5)nc4c3)c3c(N)nccn32)C1 [Linsitinib] (partner 1 µM)
# How it was run: as §1
# [4] = compound: O[C@@H](COc1cccc2ncccc12)CN1CCN([C@@H]2c3ccccc3[C@@H]3[C@H](c4ccccc42)C3(F)F)CC1 [Zosuquidar] + Cc1cc(Nc2cc(N3CCN(C)CC3)nc(Sc3ccc(NC(=O)C4CC4)cc3)n2)n[nH]1 [Tozasertib] (partner 0.1 µM)
# How it was run: as §1
Cell Line,relative viability ([1]; first compound 0.2 µM),relative viability ([1]; first compound 0.6325 µM),relative viability ([1]; first compound 2 µM),relative viability ([1]; first compound 6.325 µM),relative viability ([1]; first compound 20 µM),relative viability ([2]; first compound 0.2 µM),relative viability ([2]; first compound 0.6325 µM),relative viability ([2]; first compound 2 µM),relative viability ([2]; first compound 6.325 µM),relative viability ([2]; first compound 20 µM),relative viability ([3]; first compound 0.01 µM),relative viability ([3]; first compound 0.03162 µM),relative viability ([3]; first compound 0.1 µM),relative viability ([3]; first compound 0.3162 µM),relative viability ([3]; first compound 1 µM),relative viability ([4]; first compound 0.01 µM),relative viability ([4]; first compound 0.03162 µM),relative viability ([4]; first compound 0.1 µM),relative viability ([4]; first compound 0.3162 µM),relative viability ([4]; first compound 1 µM)
201T,1.16,1.17,1.04,0.946,0.93,0.968,1.04,1.05,0.955,0.941,1.06,1.01,0.892,0.961,1.01,0.876,0.907,0.888,0.993,0.854
A549,0.955,0.991,0.908,0.924,0.958,0.562,0.687,0.583,0.524,0.578,0.766,0.571,0.416,0.53,0.564,,,,,
A-427,0.983,1.21,1.06,1.1,1.08,1.1,1.15,1.09,0.954,1.17,1.09,1.14,0.971,1.15,1.11,0.205,0.247,0.271,0.218,0.192
ABC-1,0.957,0.922,,0.93,1.3,0.609,0.984,0.722,0.876,0.735,0.877,0.794,0.836,0.871,0.924,0.143,0.172,0.194,0.234,0.178
BEN,0.591,0.706,0.738,0.58,0.768,0.988,1.06,0.967,0.858,0.915,1.05,0.896,0.766,0.859,0.936,0.482,0.489,0.503,0.563,0.431
CAL-12T,1.02,1.02,1.09,1.05,1.06,0.707,0.821,0.705,0.916,0.709,0.776,0.979,0.549,0.894,0.841,0.263,0.289,0.329,0.333,0.286
COR-L23,0.902,0.972,0.966,0.96,0.951,0.798,1.09,0.941,0.894,0.939,0.98,0.959,0.945,1.03,0.902,0.196,0.224,0.188,0.215,0.187
COR-L 105,0.986,1.02,0.867,1.1,0.979,0.711,0.985,0.574,0.944,0.988,0.889,0.975,0.869,1.15,1.05,0.293,0.315,0.402,0.309,0.333
Calu-6,0.858,0.935,0.894,0.86,0.875,0.911,0.975,0.897,0.954,0.895,0.905,0.906,0.901,1.12,0.948,,,,,
ChaGo-K-1,0.971,1.03,0.865,0.954,0.838,,,,,,,,,,,0.227,0.217,0.261,0.204,0.227
EBC-1,0.116,0.108,0.113,0.0943,0.111,0.796,0.975,0.893,0.938,0.871,0.956,0.923,0.747,1.16,0.845,,,,,
EKVX,1.05,0.753,0.7,0.839,1.03,1.02,1.02,0.919,0.971,1.03,1.05,1.06,0.731,0.922,1.05,0.394,0.436,0.389,0.369,0.348
EMC-BAC-2,0.938,1.03,0.99,1.04,1.02,0.794,0.869,0.817,0.796,0.793,0.803,0.843,0.782,0.858,0.797,0.278,0.33,0.285,0.274,0.261
EPLC-272H,0.41,0.937,0.667,0.668,0.796,1.2,1.2,1.23,1.36,0.447,1.24,1.22,1.1,1.12,1.09,0.192,0.245,0.358,0.261,0.253
H3255,0.946,0.834,0.784,0.882,0.944,0.875,1.09,0.941,0.838,0.87,1.07,0.945,0.783,1.1,0.951,0.734,0.737,0.718,0.711,0.604
HARA,0.996,0.795,0.893,0.856,0.892,0.959,1.02,0.948,0.839,0.847,0.84,0.993,0.959,1.04,1.11,0.111,,0.112,0.0991,0.102
HCC-15,0.979,1.09,0.974,1.09,0.974,0.881,0.919,0.872,0.832,0.899,0.949,0.794,0.913,0.901,0.901,0.257,0.323,0.416,0.223,0.321

Cell Line,relative viability ([1]; first compound 0.2 µM),relative viability ([1]; first compound 0.6325 µM),relative viability ([1]; first compound 2 µM),relative viability ([1]; first compound 6.325 µM),relative viability ([1]; first compound 20 µM),relative viability ([2]; first compound 0.2 µM),relative viability ([2]; first compound 0.6325 µM),relative viability ([2]; first compound 2 µM),relative viability ([2]; first compound 6.325 µM),relative viability ([2]; first compound 20 µM),relative viability ([3]; first compound 0.01 µM),relative viability ([3]; first compound 0.03162 µM),relative viability ([3]; first compound 0.1 µM),relative viability ([3]; first compound 0.3162 µM),relative viability ([3]; first compound 1 µM),relative viability ([4]; first compound 0.01 µM),relative viability ([4]; first compound 0.03162 µM),relative viability ([4]; first compound 0.1 µM),relative viability ([4]; first compound 0.3162 µM),relative viability ([4]; first compound 1 µM)
HCC-44,,,,,,0.739,0.668,0.632,0.624,0.766,0.663,0.684,0.65,0.669,0.696,0.965,1.13,1.17,1.01,0.889
HCC-78,0.628,0.541,0.669,0.575,0.577,0.61,0.495,,0.459,0.611,0.67,0.556,,0.486,0.542,0.413,0.329,,0.44,0.398
HCC-366,0.945,0.969,0.966,0.919,0.959,0.711,0.743,0.629,0.664,0.647,0.641,0.682,0.641,0.597,0.783,0.153,0.395,0.195,0.121,0.102
HCC-827,0.999,1.11,1.03,1.04,1.1,0.902,0.936,0.925,0.955,0.922,1,0.902,0.943,0.879,0.96,0.413,0.369,0.401,0.386,0.386
HOP-62,1.08,1.16,1.18,1.1,1.08,0.837,1.11,0.974,1.01,1.12,0.834,1.12,1.13,0.886,0.991,0.363,0.312,0.396,0.341,0.308
IA-LM,1.09,1.01,0.953,1.24,1.01,0.506,0.462,0.632,0.476,0.573,0.671,0.766,0.334,0.654,0.624,,,,,
NCI-H522,,,,,,,,,,,,,,,,0.536,0.537,0.585,0.601,0.556
NCI-H1299,1.06,1.09,1.05,1.13,1.03,0.887,0.979,0.961,1.03,0.945,1.03,0.955,0.967,0.992,0.959,,,,,
NCI-H1563,0.996,0.928,0.964,1.02,0.996,1.1,1.39,1.08,1.14,1.34,1.22,1.29,1.13,1.2,1.26,,,,,
NCI-H1623,0.966,0.954,0.79,0.809,0.854,,,,,,,,,,,0.43,0.33,0.435,0.421,0.407
NCI-H1648,,,,,,,,,,,,,,,,0.602,,0.316,0.497,0.562
NCI-H1650,0.998,1.31,0.962,1.09,1.59,,,,,,,,,,,0.43,0.426,0.478,0.469,0.371
NCI-H1703,0.404,0.349,0.4,0.321,0.329,0.609,0.99,0.499,0.749,0.377,1.13,0.979,0.543,1.57,0.74,,,,,
NCI-H1792,,,,,,0.563,0.53,0.613,0.521,0.558,0.545,0.438,0.431,0.572,0.579,,,,,
NCI-H2170,0.966,1.04,1.01,1.01,0.963,,,,,,,,,,,0.788,0.733,0.825,0.622,0.738
NCI-H2342,1.08,1.16,0.968,0.991,1.23,,,,,,,,,,,0.499,0.468,0.55,0.608,0.597
SW 900,0.979,0.926,0.821,0.854,0.993,,,,,,,,,,,0.581,0.583,0.573,0.665,0.473

# Source: the supplement of paper PMC10307832
